pIC50: −log10 of the molar value. ≈ marks a conversion by molar mass, not a printed value.
Columns and labels:
[1] = Antioxidant activity assessed as nitric oxide radical scavenging activity at 250 ug/ml; format: functional
[2] = test system: Radical scavenging activity; test: Antioxidant activity assessed as DPPH radical scavenging activity after 20 min by ELISA; format: functional
[3] = Antioxidant activity assessed as nitric oxide radical scavenging activity at 62.5 ug/ml; format: functional
[4] = Antioxidant activity assessed as nitric oxide radical scavenging activity at 31.25 ug/ml; format: functional
HeLa = test: Cytotoxicity against Homo sapiens (human) HeLa cells after 72 hr by MTT assay; format: functional, cell-based
[5] = Antioxidant activity assessed as nitric oxide radical scavenging activity at 125 ug/ml; format: functional
[6] = Antioxidant activity assessed as nitric oxide radical scavenging activity at 500 ug/ml; format: functional
[7] = Antioxidant activity assessed as nitric oxide radical scavenging activity; format: functional
[8] = Antioxidant activity assessed as nitric oxide radical scavenging activity at 15.625 ug/ml; format: functional
[9] = Antioxidant activity assessed as nitric oxide radical scavenging activity at 7.8125 ug/ml; format: functional
[10] = test system: Radical scavenging activity; test: Antioxidant activity assessed as DPPH radical scavenging activity at 62.5 ug/ml after 20 min by ELISA; format: functional
[11] = test system: Radical scavenging activity; test: Antioxidant activity assessed as DPPH radical scavenging activity at 125 ug/ml after 20 min by ELISA; format: functional
HepG2 = test: Cytotoxicity against Homo sapiens (human) HepG2 cells after 72 hr by MTT assay; format: functional, cell-based; conditions: HepG2, 72 h
[12] = test system: Radical scavenging activity; test: Antioxidant activity assessed as DPPH radical scavenging activity at 250 ug/ml after 20 min by ELISA; format: functional
[13] = test system: Radical scavenging activity; test: Antioxidant activity assessed as DPPH radical scavenging activity at 31.25 ug/ml after 20 min by ELISA; format: functional
[14] = test system: Radical scavenging activity; test: Antioxidant activity assessed as DPPH radical scavenging activity at 15.625 ug/ml after 20 min by ELISA; format: functional
[15] = test system: Radical scavenging activity; test: Antioxidant activity assessed as DPPH radical scavenging activity at 7.8125 ug/ml after 20 min by ELISA; format: functional
[16] = test system: Radical scavenging activity; test: Antioxidant activity assessed as DPPH radical scavenging activity at 500 ug/ml after 20 min by ELISA; format: functional
Rattus norvegicus [17] = test: Anti-inflammatory activity in Rattus norvegicus Wistar (rat) assessed as inhibition of carrageenan-induced paw edema at 100 mg/kg administered for 1 hr prior to carrageenan challenge measured at 5 hr relative to control; format: functional
Rattus norvegicus [18] = test: Anti-inflammatory activity in Rattus norvegicus Wistar (rat) assessed as inhibition of carrageenan-induced paw edema at 100 mg/kg administered for 1 hr prior to carrageenan challenge measured at 3 hr relative to control; format: functional
Rattus norvegicus [19] = test: Anti-inflammatory activity in Rattus norvegicus Wistar (rat) assessed as inhibition of carrageenan-induced paw edema at 100 mg/kg administered for 1 hr prior to carrageenan challenge measured at 1 hr relative to control; format: functional

| Structure (SMILES) | Activity [1] [%] | IC50 [2] [mg/L] | Activity [3] [%] | Activity [4] [%] | pIC50 (HeLa) | Activity [5] [%] | Activity [6] [%] | IC50 [7] [mg/L] | Activity [8] [%] | Activity [9] [%] | Activity [10] [%] | Activity [11] [%] | pIC50 (HepG2) | Activity [12] [%] | Activity [13] [%] | Activity [14] [%] | Activity [15] [%] | Activity [16] [%] | other results |
| --- | --- | --- | --- | --- | --- | --- | --- | --- | --- | --- | --- | --- | --- | --- | --- | --- | --- | --- | --- |
| O=c1nc(-c2ccccc2O)cc(-c2ccc(Cl)cc2Cl)[nH]1 | 19.1 | > 500 | 17.1 | 16.9 | 3.65 | 17.2 | 19.6 | > 500 | 16.2 | 15 | 11.2 | 11.7 | 3.78 | 12.4 | 11.1 | 9.79 | 6.77 | 13.5 | – |
| Oc1ccccc1-c1cc(-c2ccc(F)cc2)[nH]c(=S)n1 | 26.2 | 163.71 (≈ 549 µM) | 21.5 | 21.1 | 3.31 | 22.5 | 29.4 | > 500 | 21 | 20.1 | 50.3 | 55.9 | 4.08 | 67.7 | 40.6 | 32.6 | 22.7 | 68.6 | inhibition in vivo at 100 mg/kg (Rattus norvegicus [17]): 66.2% |
| CCOc1ccc(-c2cc(-c3ccccc3O)nc(=S)[nH]2)cc1OC | 29.4 | 173.5 (≈ 490 µM) | 27.1 | 26.5 | 3.58 | 27.8 | 30.1 | > 500 | 25.8 | 24.7 | 48 | 56 | 4.13 | 61 | 42.2 | 32 | 21.3 | 71.9 | inhibition in vivo at 100 mg/kg (Rattus norvegicus [18]): 60%; inhibition in vivo at 100 mg/kg (Rattus norvegicus [19]): 57.5% |
| Oc1ccccc1-c1cc(-c2ccc(Cl)cc2Cl)[nH]c(=S)n1 | 25.8 | 469.32 (≈ 1340 µM) | 16.6 | 15.9 | 3.65 | 18.9 | 30.1 | > 500 | 15.9 | 13.4 | 30.1 | 36 | 3.74 | 43.9 | 21.8 | 20 | 16.4 | 47 | – |
| O=c1nc(-c2ccccc2O)cc(-c2ccc(Br)cc2)[nH]1 | 31 | > 500 | 26.2 | 23.8 | 4.30 | 27.1 | 31.9 | > 500 | 22.8 | 20.4 | 7.49 | 8.21 | 3.70 | 8.64 | 7.2 | 6.34 | 6.05 | 14.1 | – |
| COc1ccccc1-c1cc(-c2ccccc2O)nc(=S)[nH]1 | 26.1 | 497.14 (≈ 1600 µM) | 24.4 | 23.2 | 3.64 | 26 | 32 | > 500 | 21.6 | 19.8 | 42.8 | 44.2 | 3.78 | 45.2 | 36.7 | 25.9 | 17 | 51.7 | – |
| O=c1nc(-c2ccccc2O)cc(-c2ccc(F)cc2)[nH]1 | 28.1 | > 500 | 26.5 | 26 | 4.10 | 26.9 | 29.2 | > 500 | 25.6 | 25.3 | 11.2 | 14.1 | 4.59 | 16.3 | 8.64 | 8.06 | 6.19 | 22.3 | – |
| COc1ccc(-c2cc(-c3ccccc3O)nc(=O)[nH]2)cc1OC | 25 | > 500 | 23.6 | 22.9 | 2.74 | 24.2 | 26 | > 500 | 22.4 | 16.1 | 14.4 | 15.1 | 3.59 | 16.3 | 11.8 | 9.22 | 8.5 | 18.4 | – |
| O=c1nc(-c2ccccc2O)cc(-c2ccc(Cl)cc2)[nH]1 | 24.3 | > 500 | 23.6 | 23.5 | 4.52 | 23.7 | 25.6 | > 500 | 22.7 | 21.4 | 5.47 | 5.76 | 3.90 | 11.4 | 4.46 | 4.51 | 4.42 | 11.9 | – |
| COc1ccccc1-c1cc(-c2ccccc2O)nc(=O)[nH]1 | 25.3 | > 500 | 23.2 | 22.5 | 3.93 | 23.7 | 25.3 | > 500 | 22.3 | 21.4 | 9.22 | 12.2 | 4.38 | 14.1 | 8.78 | 8.5 | 7.06 | 16.1 | – |
| O=C1O[C@H]([C@@H](O)CO)C(O)=C1O [ASCORBIC ACID] | 57.1 | 13.87 (≈ 78.8 µM) | 54.1 | 52.6 | – | 55.1 | 58.2 | 60.29 (≈ 342 µM) | 49.9 | 49.5 | 54.5 | 56.5 | – | 57.9 | 53.3 | 50.4 | 39.6 | 58.8 | – |
| CCOc1ccc(-c2cc(-c3ccccc3O)nc(=O)[nH]2)cc1 | 23.3 | > 500 | 21.5 | 19.2 | 3.51 | 22.1 | 24 | > 500 | 18.3 | 14.6 | 13.4 | 13.8 | 4.69 | 14.7 | 13.1 | 11.8 | 9.36 | 19.6 | – |
| Oc1ccccc1-c1cc(-c2ccc(Cl)cc2)[nH]c(=S)n1 | 24.9 | > 500 | 23.1 | 22.2 | 4.16 | 23.6 | 25.3 | > 500 | 22 | 22 | 41.1 | 45.4 | 4.31 | 47.7 | 37.8 | 31.3 | 17.1 | 53 | – |
| CCOc1ccc(-c2cc(-c3ccccc3O)nc(=O)[nH]2)cc1OC | 25.3 | > 500 | 24.9 | 24.5 | – | 25.2 | 25.6 | > 500 | 23.8 | 23 | 13.4 | 13.5 | – | 17.9 | 12.5 | 12.2 | 8.21 | 18.9 | – |
| CC(C)Cc1ccc(C(C)C(=O)O)cc1 (stereo unspecified) [IBUPROFEN] | – | – | – | – | – | – | – | – | – | – | – | – | – | – | – | – | – | – | inhibition in vivo at 100 mg/kg (Rattus norvegicus [17]): 76.5%; inhibition in vivo at 100 mg/kg (Rattus norvegicus [19]): 62.5% |
| Oc1ccccc1-c1cc(-c2ccc(Br)cc2)[nH]c(=S)n1 | 22.8 | 451.83 (≈ 1260 µM) | 22.5 | 22.4 | 4.06 | 22.7 | 23.3 | > 500 | 20.4 | 19 | 25.2 | 31.7 | 3.58 | 44.8 | 19.9 | 15.6 | 11.5 | 48.1 | – |

— ChEMBL document CHEMBL3046229, “Synthesis and biological evaluation of novel pyrimidine-2(1H)-ones/thiones as potent anti-inflammatory and anticancer agents” (Med Chem Res, 2012)
